The source of these data is article PMC3202029 (Journal of ethnopharmacology, 2011).

A short description of one data set: Transepithelial transfer. The conditions noted are these: human, Caco-2, pH 7.4. The data set is classed as in vitro ADME, human.
A further data set deals with Caco-2 cell monolayers. The data set can be described thus: Transepithelial transfer. In kind it is in vitro ADME, human. The conditions noted are these: for compound found in cells: cell homogenate after 4 h, before or after deconjugation; for uptake (transport rate): 4 h.
For data set [1] the following is noted: ref Konishi et al. 2005; Bérangère et al., 2004; cited from earlier work.

On to `O=C(/C=C/c1ccc(O)c(O)c1)O[C@H](Cc1ccc(O)c(O)c1)C(=O)O` [RA, Rosmarinic acid], for which the recovery at 4 h, 10 μM in the data set “Transepithelial transfer” is 86.7 ± 2.9%. Also, the “basolateral detection at 0.5 and 1 h” value in the data set on Caco-2 cell monolayers (before deconjugation, 10 μM RA) is “not detected”. The “compound found in cells” value in the data set with Caco-2 cell monolayers is “neither RA nor UA was found in cells”. The “partition coefficient (Log P)” value in data set [1] was 0.2.
On to `C[C@H]1[C@H](C)CC[C@]2(C(=O)O)CC[C@]3(C)C(=CC[C@@H]4[C@@]5(C)CC[C@H](O)C(C)(C)[C@@H]5CC[C@]43C)[C@H]12` [UA, Ursolic acid], for which the “detection of UA after apical application of P. vulgaris extracts” value with Caco-2 cell monolayers (apically-applied P. vulgaris extracts containing 1-10 μM RA) is “not detected”. Moreover, in the data set on Caco-2 cell monolayers, the “compound found in cells” value is recorded as “neither RA nor UA was found in cells”. Moreover, the “uptake (transport rate)” value with Caco-2 cell monolayers (highest tested concentration, 20 μM) was 0.2 ± 0.04 μM/h/cm^2; in the data set on Caco-2 cell monolayers (lowest tested concentration, 5 μM) it was 0.03 ± 0.01 μM/h/cm^2. Further, the “partition coefficient (Log P)” value in data set [1] is 6.4.
For the compound lucifer yellow [LY, reference compound], the “basolateral recovery of paracellular marker” value in the data set with Caco-2 cell monolayers (100 μM LY) is on record as 0.5 ± 0.1%. For the same compound, the Papp before deconjugation in the data set with Caco-2 cell monolayers (apical to basolateral, HBSS pH 7.4, RA 10 μM, UA 5, 10 and 20 μM, LY 100 μM) was 0.3 ± 0.1 cm/s ×10^−6.
